These results are taken from PubChem BioAssay (NCI).

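Briefly, cells in 96-well plates were exposed to five compound concentrations for 48 h, and endpoints were estimated by linear interpolation. Abbreviation: GI50, concentration required for 50% inhibition of growth. TGI denotes the concentration required for complete inhibition of growth.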

Test systems include SK-MEL-28 melanoma; OVCAR-5 ovarian; DU-145 prostate; COLO 205 colon; HOP-92 NSCLC; ACHN renal; NCI-H23 lung; CAKI-1 renal; NCI-H522 lung; OVCAR-3 ovarian.
Holding throughout (assay): DTP human tumour cell line panel, 48 h

Regarding `C=CCC(N[C@@H](CO)c1ccccc1)c1cn(Cc2ccccc2Cl)c(=O)n(Cc2ccccc2Cl)c1=O` (stereo partly drawn), the GI50 in the assay on SK-MEL-28 melanoma, in the assay with OVCAR-5 ovarian, with DU-145 prostate, in the assay with COLO 205 colon, with HOP-92 NSCLC and in the assay with ACHN renal was more than 100 µM throughout. In addition, the GI50 is more than 100 µM with NCI-H23 lung, 73.6 µM in the assay on CAKI-1 renal, more than 100 µM with NCI-H522 lung and more than 100 µM in the assay with OVCAR-3 ovarian. For the same compound, the TGI in the assay with SK-MEL-28 melanoma, in the assay on OVCAR-5 ovarian, in the assay with DU-145 prostate, with COLO 205 colon, in the assay with HOP-92 NSCLC and in the assay on ACHN renal was more than 100 µM in each case. The TGI with NCI-H23 lung, in the assay with CAKI-1 renal, in the assay on NCI-H522 lung and with OVCAR-3 ovarian was more than 100 µM each time.

Regarding `Nc1ccccc1NC(=O)c1ccc(CNc2nccc(-c3cccnc3)n2)cc1`, the GI50 was 0.691 µM with SK-MEL-28 melanoma; 0.55 µM in the assay with OVCAR-5 ovarian; 1.45 µM in the assay with DU-145 prostate; 0.626 µM in the assay with COLO 205 colon; 0.206 µM in the assay with HOP-92 NSCLC; 1.14 µM in the assay with ACHN renal. For the same compound, the GI50 in the assay with NCI-H23 lung is 1.4 µM; with CAKI-1 renal it was 0.323 µM; in the assay on NCI-H522 lung it was 0.337 µM; in the assay on OVCAR-3 ovarian it was 1.33 µM. For the same compound, the TGI in the assay on SK-MEL-28 melanoma was 3.15 µM; with OVCAR-5 ovarian, more than 48 µM; in the assay with DU-145 prostate, more than 100 µM; in the assay on COLO 205 colon, 2.06 µM; with HOP-92 NSCLC, 2.7 µM; in the assay with ACHN renal it was more than 27.8 µM. The TGI is more than 68.1 µM in the assay on NCI-H23 lung, 1.76 µM in the assay with NCI-H522 lung and 4.62 µM in the assay on OVCAR-3 ovarian.

In the case of `CCOC(=O)[C@@H](C)C[C@H](Cc1ccccc1)NC(=O)c1nc([C@@H](C[C@H](C(C)C)N(C)C(=O)[C@@H](NC(=O)[C@H]2CCCCN2C)C(C)C)OC(C)=O)sc1CCOCc1ccccc1`, the GI50 with SK-MEL-28 melanoma is 0.54 µM; in the assay on OVCAR-5 ovarian, 0.246 µM; in the assay with DU-145 prostate it was 0.0404 µM; with COLO 205 colon, 0.0522 µM; with HOP-92 NSCLC, 0.109 µM; with ACHN renal, 0.117 µM. Besides, the 50% growth inhibitory concentration (GI50) in the assay on NCI-H23 lung was 0.188 µM; with CAKI-1 renal, 0.128 µM; in the assay with NCI-H522 lung it was 0.029 µM; in the assay with OVCAR-3 ovarian it was 0.0396 µM. Moreover, the concentration for total growth inhibition (TGI) in the assay on SK-MEL-28 melanoma amounted to 2.72 µM; with OVCAR-5 ovarian, 4.11 µM; with DU-145 prostate, 1.08 µM; in the assay with COLO 205 colon, 0.276 µM; in the assay with HOP-92 NSCLC, 2.34 µM; in the assay on ACHN renal it was 3.06 µM. The results for the concentration for total growth inhibition (TGI) in the assay on NCI-H23 lung, with CAKI-1 renal and in the assay with NCI-H522 lung were 5.6 µM, 2.18 µM and 0.319 µM, respectively.

Take `O=C1CC[C@H](N2C(=O)c3cccc4c(Cc5ccc(CN6CCOCC6)cc5)ccc2c34)C(=O)N1`: the GI50 with SK-MEL-28 melanoma is 75.1 µM; in the assay on OVCAR-5 ovarian, more than 100 µM; in the assay on DU-145 prostate, more than 100 µM; in the assay with COLO 205 colon, 45.8 µM; in the assay on HOP-92 NSCLC, 8.14 µM; with ACHN renal it was 78.6 µM. Moreover, the GI50 was 29.4 µM in the assay on NCI-H23 lung, 62.1 µM in the assay with CAKI-1 renal, 12.3 µM in the assay with NCI-H522 lung and 65.6 µM with OVCAR-3 ovarian. The TGI with SK-MEL-28 melanoma, with OVCAR-5 ovarian, with DU-145 prostate, in the assay on COLO 205 colon, in the assay with HOP-92 NSCLC and in the assay with ACHN renal was more than 100 µM in each case. Also, the TGI in the assay on NCI-H23 lung, in the assay on CAKI-1 renal, in the assay with NCI-H522 lung and in the assay on OVCAR-3 ovarian was more than 100 µM each time.

As for `COc1cccc(CCC2CCCN(c3cc(C)nc(N)n3)C2)c1` (stereo not drawn), the GI50 with SK-MEL-28 melanoma is 1.12 µM; in the assay with OVCAR-5 ovarian it was 1.54 µM; in the assay with DU-145 prostate it was 0.326 µM; in the assay with COLO 205 colon, 0.313 µM; with HOP-92 NSCLC, 0.519 µM; in the assay on ACHN renal, 0.625 µM. Further, the GI50 with NCI-H23 lung was 0.614 µM; in the assay on CAKI-1 renal, 0.385 µM; in the assay on NCI-H522 lung, 0.289 µM; in the assay on OVCAR-3 ovarian it was 0.242 µM. Moreover, the total growth inhibition concentration (TGI) in the assay on SK-MEL-28 melanoma is 16 µM; with OVCAR-5 ovarian it was 17.7 µM; in the assay with DU-145 prostate, 11.2 µM; in the assay on COLO 205 colon it was 1.06 µM; in the assay with HOP-92 NSCLC it was 11.6 µM; in the assay with ACHN renal, 14.1 µM. Further, the total growth inhibition concentration (TGI) in the assay on NCI-H23 lung worked out at 14 µM; in the assay with CAKI-1 renal, 13.4 µM; in the assay with NCI-H522 lung, 3.16 µM; in the assay with OVCAR-3 ovarian, 0.675 µM.

As to `Cn1cc(C2=C(c3ccccc3[N+](=O)[O-])C(=O)NC2=O)c2ccccc21`, the GI50 with SK-MEL-28 melanoma was 6.24 µM; in the assay on OVCAR-5 ovarian it was 8.64 µM; in the assay on DU-145 prostate it was 6.13 µM; with COLO 205 colon, 2.79 µM; in the assay with HOP-92 NSCLC, 6.08 µM; with ACHN renal, 1.65 µM. Also, the GI50 is 7.25 µM with NCI-H23 lung, 3.87 µM with CAKI-1 renal, 5.78 µM with NCI-H522 lung and 2.32 µM with OVCAR-3 ovarian. Further, the TGI is 20.1 µM in the assay on SK-MEL-28 melanoma; more than 25 µM with OVCAR-5 ovarian; more than 25 µM with DU-145 prostate; 6.38 µM with COLO 205 colon; 16.6 µM in the assay with HOP-92 NSCLC; more than 23.4 µM in the assay on ACHN renal. In addition, the concentration for total growth inhibition (TGI) was more than 25 µM in the assay on NCI-H23 lung, more than 20.8 µM in the assay on CAKI-1 renal, 18.1 µM in the assay with NCI-H522 lung and more than 21.8 µM with OVCAR-3 ovarian.

`NC1=CC(=O)c2cccnc2C1=O`: the GI50 in the assay on SK-MEL-28 melanoma is 1.7 µM; with OVCAR-5 ovarian, 2.05 µM; in the assay with DU-145 prostate it was 1.58 µM; in the assay with COLO 205 colon, 3.33 µM; in the assay on HOP-92 NSCLC, 1.71 µM; in the assay on ACHN renal it was 1.29 µM. Moreover, the GI50 in the assay with NCI-H23 lung is 1.34 µM; with CAKI-1 renal it was 1.59 µM; with NCI-H522 lung, 0.533 µM; in the assay on OVCAR-3 ovarian, 1.44 µM. For the same compound, the TGI in the assay on SK-MEL-28 melanoma came to 3.21 µM; in the assay on OVCAR-5 ovarian, 4.72 µM; in the assay on DU-145 prostate, 2.97 µM; with COLO 205 colon, 11.7 µM; with HOP-92 NSCLC, 3.39 µM; in the assay with ACHN renal, 2.75 µM. In addition, the total growth inhibition concentration (TGI) turned out to be 4.14 µM in the assay with NCI-H23 lung, 3.15 µM in the assay with CAKI-1 renal, 2.17 µM in the assay on NCI-H522 lung and 3.16 µM with OVCAR-3 ovarian.
